Laboratory results taken from patent US20040038369A1, “Airway-specific trypsin-like enzymes and method of using the same” (priority 2000, published 2004).

Key:
PAR-1 = molecular target: T1, PAR-1 (Homo sapiens, UniProt P25116); assay: Calcium influx in PAR-1-expressing insect cells; assay type: cell-based; settings: AST 2 units/mL; trypsin, thrombin 0.1 to 10 units/mL; SFLLRNamide 10 to 100 μM
T1 construct: expressed in transfected cells; host or cells: Sf9 insect cells infected with recombinant baculovirus VL-PAR (pVL1393)
T1 sequence (P25116 22-425): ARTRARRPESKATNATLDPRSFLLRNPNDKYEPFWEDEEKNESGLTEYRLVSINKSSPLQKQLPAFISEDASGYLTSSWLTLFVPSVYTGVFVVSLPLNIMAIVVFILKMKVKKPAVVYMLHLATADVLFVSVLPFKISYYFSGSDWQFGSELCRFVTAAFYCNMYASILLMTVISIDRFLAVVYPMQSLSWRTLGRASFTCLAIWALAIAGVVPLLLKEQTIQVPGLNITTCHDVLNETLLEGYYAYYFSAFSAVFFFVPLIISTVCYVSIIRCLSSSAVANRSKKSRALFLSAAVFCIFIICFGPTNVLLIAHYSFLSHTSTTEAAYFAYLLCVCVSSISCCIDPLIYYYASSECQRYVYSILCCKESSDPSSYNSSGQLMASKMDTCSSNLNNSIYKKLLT
Method: The above-obtained recombinant baculovirus VL-PAR for expressing the PAR was used to infect 1.0×10^7 Sf9 cells sowed on a 75 cm^2 flask at an MOI=2, and was then left and stationally cultured at 27° C. for 40 hours. After the culture, the infected cells were recovered and then subjected to a calcium influx experiment to-confirm the function of the PAR.
The recovered infected cells (about 5×10^6 cells) were once washed with HEPES-Tyrode buffer solution-Ca^2+ (−) pH 7.4, and then suspended in 5 mL of HEPES-Tyrode buffer solution (containing Fura2-AM, 1 μg/mL) to load the Fura2-AM on the cells at 27° C. for 30 minutes. The suspension was centrifuged at 800 rpm at room temperature for 5 minutes to recover the cells. The cells were twice washed with HEPES-Tyrode buffer solution-Ca^2+ (−) pH 7.4 and then resuspended in 5 mL of HEPES-Tyrode buffer solution-Ca^2+ (−) pH 7.4. The cell suspension was mixed with 5 μL of 1M CaCl2 to give a final concentration of 1 mM CaCl2, and then incubated in a shaded state at room temperature for 5 minutes. The prepared Fura2-AM-loaded infected cells were dispensed into a 96 well plate in a volume of 100 μL/well, further subjected to the dispensation of HEPES-Tyrode buffer solution-C^2+ (+) pH 7.4 in a volume of 80 μL/well, and then assayed with a Fluorescence Drug Screening System (made by Hamamatsu Photonics Co.). Namely, [intensity of 500 nm fluorescent light due to 340 nm exciting light]/[intensity of 500 nm fluorescent light due to 380 nm exciting light] (reflecting the concentration of calcium in the cells) was assayed.

HBEGF (Δ TM)-ALP = assay: Cleavage of HBEGF (Δ TM)-ALP due to HAST (western blotting); assay type: biochemical, human; settings: recombinant HAST, 37° C. overnight
Method: 293EBNA cell strain was sowed in a density of 9×10^6 cells/10 cm dish, cultured overnight, and then transfected with the human HBEGF-expressing plasmid: pEF9-HBEGF (Δ TM)-ALP prepared in 1). 12 μg of the pEF9-HBEGF (Δ TM)-ALP was subjected to a lipofection with 75 μL of Lipofectamine 2000 (produced by GIBCO-BRL). The lipofection was carried out according to an appended manual. 72 hour later, the cells were peeled with a pipette, and then centrifuged at 3000 rpm at 4° C. for five minutes. The lysate was dissolved in 12 mL of M-PER (produced by PIERCE Corp.), subjected to an SDS-polyacrylamide gel electrophoresis under a non-reducing condition, and then blotted on a nitrocellulose membrane (produced by BIO-RAD Corp.).
The product blotted on the nitrocellulose membrane was treated with 3% BSA-containing PBS at 4° C. overnight and then reacted with the anti-human HB-EGF antibody (produced by GENZYME Corp., an antibody recognizing an EGFR-binding site) diluted with 1% BSA-containing PBS in a concentration of 1 μg/mL, at room temperature for one hour. The nitrocellulose membrane was washed with 0.05% Tween 20-containing PBS three times, and then reacted with Swine Anti-Goat Ig's-ALP antibody (produced by BIOSOURCE Corp.) diluted with 1% BSA-containing PBS in a concentration of 1 μg/mL at room temperature for one hour. […]

NCI-H292 cells = assay: AB-PAS staining of mucus glycoprotein in NCI-H292 cells; assay type: cell-based, human; settings: FIG. 1 and 2
Method: NCI-H292 cells (human pulmonary mucoepidermoid tumor cell strain, purchased from ATCC) were suspended in 10% FCS (Fetal Calf Serum)-containing RPMI-1640 (produced by Gibco Corp.), sowed on a Lab-Tek 8 well chamber slide (produced by Nunc Corp.) in a density of 6.0×10^4 cells/cm^2, cultured for 72 hours, subjected to the replacement of the culture solution by RPMI-1640 containing 0.1% of BSA, and further cultured for 24 hours.
On the day of the treatment, the culture solution of each well was replaced by RPMI-1640 (containing 0.1% BSA) containing EGF (5 ng/mL, produced by Becton Dickinson Corp.), HB-EGF (5 ng/mL, produced by R & D Corp.), TGF-α (5 ng/mL, produced by Peprotech Corp.), or PBS to start the treatment. Then, the cells were incubated at 37° C. for 24 hours.
After the prescribed 24 hours treatment, the culture supernatant was removed. The residue was once washed with PBS, mixed with 4% paraformaldehyde/PBS, and then allowed to stand at room temperature for one hour to immobilize the cells. The immobilized cells were twice washed with Milli Q water and then stained with AB-PAS. The staining was carried out according to a book (“All of new dyeing methods” p136-150 (Iyaku Shuppansha)). After staining, the cells were sequentially immersed in 70, 80, and 100% ethanol for five minutes, respectively, to remove water, sealed in an Aquatex (produced by Merck Corp.), and then subjected to the observation of the staining image with an optical microscope. From the results, it was clarified that all of HAST, TGF-α, EGF, and HB-EGF promoted the production of the mucus glycoprotein.
NCI-H292 cells (purchased from ATCC) were suspended in 10% FCS-containing RPMI-1640 (produced by Gibco Corp.), sowed on a Lab-Tek 8 well chamber slide (produced by Nunc Corp.) in a density of 6.0×10^4 cells/cm^2, cultured for 72 hours, subjected to the replacement of the culture solution by RPMI-1640 containing 0.1% of BSA, and further cultured for 24 hours. […]

HAST: human airway-specific trypsin-like enzyme; propeptide moiety bound to trypsin-like protein moiety via a disulfide bond
Ca2+ influx (PAR-1): observed
band reactive with the anti-human HB-EGF antibody (HBEGF (Δ TM)-ALP): shifted to a low molecular weight
production of the mucus glycoprotein (NCI-H292 cells): promoted
